Assay results from patent US10973863B2, “Method for regulating, preventing and/or treating pulmonary injury” (SINPHAR PHARMACEUTICAL CO., LTD., priority 2017, dated 2021).

Columns and labels:
[1] = tested on: TGFβ-induced intracellular accumulation of collagen in myofibroblast WI38 cells; experiment: Picrosirius red staining: TGFβ-induced collagen accumulation in WI38 cells; format: cell-based; conditions: Table 7, 1 ng/mL TGF-β, 24 hours
Source text: As indicated above, the hyperactive expression of MMPs will cause pulmonary injury. Under the most circumstances, the response mechanisms in animals will activate, for example, macrophages will secret TGF-β and TGF-β which can promote the lung fibroblasts to secret collagen, so that the damaged tissues can be recovered. However, the hypersecretion of collagen will also lead to lung fibrosis. To investigate whether FU-LING extracts and its active ingredients are effective in regulating, protecting and/or treating the pulmonary injury-related diseases such as lung fibrosis or not, the Picrosirius red (PSR) staining was conducted as a semi-quantification of collagen, so that the inhibitory rate of FU-LING extract and its active ingredients on the TGFβ-induced intracellular accumulation of collagen in myofibroblast WI38 cells can be determined.
Myofibroblast WI38 cells (purchased from ATCC, product no. CCL75™) were divided into ten groups and separately cultivated with the following media for 48 hours:
(1) Blank group: a myolibroblast growth medium;
(2) Control group: a myofibroblast growth medium containing 1 ng/mL TGF-β (purchased from R&D system);
(3) Positive control group: a myofibroblast growth medium containing 1 ng/mL TGF-β and 200 μg/mL Pirfenidone (abbreviated as “Pir”; purchased from Sigma-Aldrich);
(4) Extract A (including four sub-groups): a myofibroblast growth medium containing 1 ng/mL TGF-β and the extract A provided by [Preparation example A-2-2], wherein the extract A is present in the four sub-groups at a concentration of 12.5, 25, 50 and 100 μg/mL respectively; and
(5) Extract B (including three sub-groups): a myofibroblast growth medium containing 1 ng/ml, TGF-β and the extract B provided by [Preparation example A-2-3], wherein the extract B is present in the […] at a concentration of 12.5, 25 and 50 μg/mL respectively.
Thereafter, the media were replaced by methanol to fix the cells at a temperature of −20° C. for 1 to 2 hours. After that, the cells were washed with PBS, and then stained with 0.1% PSR staining agent (purchased from Sigma-Aldrich) at room temperature for 4 hours. The stained cells were washed with 0.1% acetic acid, and then lysed with 0.1N sodium hydroxide to provide a lysate. The OD540 (i.e., the absorbance at a wavelength of 540 nm) of the lysate was measured. OD540 value of each group represents the content of collagen in each group, reflecting the content of collagen in fibroblast WI38 cells under different circumstances (the relative content of collagen in each group was calculated by serving the result of blank group as 0% and serving the result of control group as 100%).
Myofibroblast WI38 cells were divided into twenty-eight groups and separately cultivated with the following media for 24 hours:
(1) Blank group: a myofibroblast growth medium;
(3) Positive control group; a myofibroblast growth medium containing 1 ng/mL TGF-β and 200 μg/mL Pirfenidone (abbreviated as “Pir”; purchased from Sigma-Aldrich);
(4) Extract C group (including five sub-groups): a myofibroblast growth medium containing 1 ng/mL TGF-β and the extract C provided by [preparation example A-3-2], wherein the extract C is present in the five sub-groups at a concentration of […], 6.25 and 12.5 μg/mL respectively;
(5) Extract D group (including five sub-groups): a myofibroblast growth medium containing 1 ng/mL TGF-β and the extract D provided by [preparation example A-4-2], wherein the extract D is present in the five sub-groups at a concentration of 0.78, 1.56, 3.13, 6.25 and 12.5 μg/mL respectively;
(6) Extract E group (including five sub-groups): a myofibroblast growth medium containing 1 ng/mL TGF-β and the extract E provided by [preparation example A-4-3], wherein the extract E is present in the five sub-groups at a concentration of 0.78, 1.56, 3.13, 6.25 and 12.5 μg/mL respectively; […]

active-form MMP-9 = experiment: Western blot: active-form MMP-9 expression in LPS-treated NR8383 cells; format: cell-based, rat; conditions: 0.01 μg/mL LPS; 6.25, 12.5, 25 and 50 μg/mL; 24 hours
Method: (§1) Rat alveolar macrophage NR8383 cells were divided into six groups and separately cultivated with the following media for 24 hours: • (1) Control group: a macrophage growth medium containing 0.01 μg/mL LPS; • (2) Positive control group: a macrophage growth medium containing 0.01 μg/mL LPS and 1 μM Dex; and • (3) Extract A group (including four sub-groups): a macrophage growth medium containing 0.01 μg/mL LPS and the extract A provided by [preparation example A-2-2], wherein the extract A is present in the four sub-groups at a concentration of 6.25, 12.5, 25 and 50 μg/mL respectively.
(§2) Thereafter, the proteins in the cells of each group were extracted and then subjected to a Western blot to measure the expression level of pro-form MMP-9 (i.e., the zymogen form of MMP-9), active-form MMP-9 and MMP-12. The relative expression level of pro-form MMP-9, active-form MMP-9 and MMP-12 of each group was calculated by using the results of the control group as a basis (i.e., the expression level of control group was served as 1-fold).
(§3) Rat alveolar macrophage NR8383 cells were divided into ten groups and separately cultivated with the following media for 24 hours:
(§4) (1) Control group: a macrophage growth medium containing 0.01 μg/mL LPS;
(§5) (2) Positive control group: a macrophage growth medium containing 0.01 μg/mL LPS and 1 μM Dex; […]

pro-form MMP-9 = experiment: Western blot: pro-form MMP-9 expression in LPS-treated NR8383 cells; format: cell-based, rat; conditions: 0.01 μg/mL LPS; 6.25 to 50 μg/mL; 24 hours
Method: as §1, §2, §3, §4, §5

MMP-12 = experiment: Western blot: MMP-12 expression in LPS-treated NR8383 cells; format: cell-based, rat; conditions: 0.01 μg/mL LPS; 6.25 to 50 μg/mL; 24 hours
Method: as §1, §2, §3, §4, §5

`C=C(CC[C@@H](C(=O)O)[C@H]1[C@H](O)C[C@@]2(C)C3=CC[C@@H](C(=C)C)[C@](C)(CCC(=O)O)C3=CC[C@]12C)C(C)C` [PAA, poricoic acid A] was tested, and the “Relative content of collagen (%)” value ([1]; 6.25 μg/mL) was 82%, the “Relative content of collagen (%)” value ([1]; 12.5 μg/mL) was 78% and the “Relative content of collagen (%)” value ([1]; 25 μg/mL) was 48%. For the same molecule, the “Relative content of collagen (%)” value ([1]; 50 μg/mL) was 0%, the “Relative content of collagen (%)” value ([1]; 100 μg/mL) was 0% and the “Inhibitory rate on active-form MMP-9 (highest over tested concentrations)” value (active-form MMP-9) was “up to 44%”. The “Expression level of pro-form MMP-9 in comparison with the control group (in words)” value (pro-form MMP-9) was “effective in inhibiting” and the “Expression level of MMP-12 (in words)” value (MMP-12) was “effective in inhibiting”.
